Values quoted from earlier work as cited in KR20220033790A, “장 정결용 조성물” (강윤식, priority 2020, dated 2022).

Test system: blood glucose (혈당)
Settings: scale 0-100, glucose = 100 at 2 h after intake; background statement

| Compound | Glycemic index (GI) |
| --- | --- |
| OC[C@@H](O)[C@@H](O)[C@H](O)[C@@H](O)CO.OC[C@@H](O)[C@@H](O)[C@H](O)[C@@H](O)CO [소르비톨] | 4 |
| OC[C@@H](O)[C@H](O)[C@@H](O)CO [자일리톨] | 14 |
